Laboratory results: US20230255970A1, “COMPOSITIONS AND METHODS FOR TREATING PROLIFERATIVE DISEASES” (The Broad Institute, Inc., priority 2020, published 2023)

Columns and labels:
[1] = system: H9 human pluripotent stem cells; experiment: qPCR of YAP1, CTGF and CYR61 in H9 hPSCs; format: cell-based; settings: 24 hrs
Experimental: H9 hPSCs (WiCell) were maintained on vitronectin (Thermo Fisher)-coated plates in Essential 8 (E8) medium. The cells were routinely passaged using 0.5 mM EDTA and treated with 5 μM Y-27632 dihydrochloride (Tocris) on the first day. For testing the effects of the small molecules, H9 hPSCs were seeded at 50K cells/cm^2 on vitronectin-coated plates in E8 medium supplemented with 5 μM Y-27632 dihydrochloride (day 0). On day 1, the medium was switched to E8 medium. On day 2, the medium was switched to E8 medium supplemented with the small molecules. Following overnight incubation, the cells were collected for subsequent analysis on day 3.
The RNA was extracted using TRIzol (Life Technologies) and Direct-zol™ RNA MiniPrep kit (Zymo Research) as per manufacturer instructions. The RNA was reverse transcribed using iScript cDNA synthesis kit (Bio-Rad). The qPCR was performed on CFX Connect (Bio-Rad) using iTaq Universal SYBR Green Supermix (Bio-Rad). GAPDH was used as a reference gene for normalization. The relative gene expression levels were determined using the ddCt method.

KP230 cells [2] = experiment: Percent viability of KP230 cells; format: cell-based, mouse; settings: 10 μM daily for 72 hours
Excerpt: YAP1 cell culture and treatments: Eisinger lab: Murine KP230 cells, a Yap1-dependent cancer cell line, were derived from a tumor from the KP mouse model (Kras^G12/D; Trp53^f/fl), as described in Eisinger-Mathason, T. S. K. et al., Proc. Natl. Acad. Sci. U.S.A 112 (2015): E3402-11, which is hereby incorporated by reference in its entirety. STS-109 UPS cells were derived from a human UPS tumor and validated by Rebecca Gladdy, MD (Sinai Health System, Toronto, Ontario, Canada). TC32 cells were a gift from Patrick Grohar, MD, PhD (Children's Hospital of Philadelphia). HT-1080, HCT-116, and HEK293T cells were purchased from ATCC. KP230, HT-1080, and HEK-293T cells were grown in DMEM with 10% FBS, 1% L-glutamine, and 1% penicillin/streptomycin (P/S). STS-109 cells were cultured in DMEM with 20% FBS, 1% L-glutamine, and 1% P/S. TC32 cells were grown in RPMI with 10% FBS, 1% L-glutamine, and 1% P/S. HCT-116 cells were cultured in McCoy's 5A medium with 10% FBS and 1% P/S. All cells were confirmed to be negative for mycoplasma contamination and were maintained in an incubator at 37C with 5% CO2. […]
(§1) NB4A treatment: Cells were treated with 10 μM of each inhibitor or an equivalent volume of DMSO every 24 hours for 3-8 days, and counted with a hemocytometer with trypan blue exclusion daily (KP230, HT-1080, TC32, HCT-116), or every 2 days (STS-109).

[3] = system: TRAF2 overexpression in U2OS cells; experiment: Cell Painting morphological profile matching to TRAF2 overexpression; format: cell-based, human; settings: for Corr. to TRAF2: Pearson correlation of Cell Painting signatures, U2OS cells
Excerpt: (§2) Of these, analysis of the 220 constructs that were most closely representative of the annotated full-length transcripts was prioritized. […] Not all genes are likely to impact cellular morphology given the limitation of the experiment; using a single cell line at a single time point under a single set of conditions and stained with six fluorescent labels.
(§3) This standardization was done plate wise, based on the mean and standard deviation of the controls at profile level for the compound dataset. […] The signatures were then obtained by averaging the replicate profiles feature-wise. Pearson correlation was used on the aligned signatures of a gene and compound to score their connection.

PAX8 = PAX8 (Homo sapiens, UniProt Q06710); settings: per PubChem; cited from earlier work
Chain of PAX8 (Q06710 whole entry, species assumed): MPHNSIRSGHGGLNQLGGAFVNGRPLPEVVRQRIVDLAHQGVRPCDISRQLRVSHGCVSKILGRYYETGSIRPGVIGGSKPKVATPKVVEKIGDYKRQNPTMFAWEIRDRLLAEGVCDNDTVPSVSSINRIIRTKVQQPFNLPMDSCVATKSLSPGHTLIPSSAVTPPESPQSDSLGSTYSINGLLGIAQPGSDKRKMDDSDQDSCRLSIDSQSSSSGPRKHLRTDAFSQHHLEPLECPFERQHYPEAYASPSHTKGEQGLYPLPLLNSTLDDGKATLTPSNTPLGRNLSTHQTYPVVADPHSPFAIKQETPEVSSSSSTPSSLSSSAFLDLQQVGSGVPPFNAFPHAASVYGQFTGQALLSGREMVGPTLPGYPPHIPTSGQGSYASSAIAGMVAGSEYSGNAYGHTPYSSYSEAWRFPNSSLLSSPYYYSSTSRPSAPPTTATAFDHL

[4] = system: YAP1 overexpression in U2OS cells; experiment: Cell Painting morphological profile matching to YAP1/TAZ overexpression signature; format: cell-based, human; settings: for Corr. to YAP1 cluster: Pearson correlation of Cell Painting signatures, U2OS cells
Excerpt: as §2
FIG. 2 provides an example characterization of matching the morphological signature of a gene query to the signature(s) of compounds in a library. Connections which show both positive and negative large correlations are considered as matches.
as §3

[5] = system: HEK293, HepG2, A549 cells; settings: per PubChem, cited from earlier work
KP230 cells [6] = experiment: Proliferation assay, KP230 cells; format: cell-based, mouse; settings: 10 μM daily for 72 hours
Excerpt: YAP1 cell culture and treatments: Eisinger lab: Murine KP230 cells, a Yap1-dependent cancer cell line, were derived from a tumor from the KP mouse model (Kras^G12/D; Trp53^f/fl), as described in Eisinger-Mathason, T. S. K. et al., Proc. Natl. Acad. Sci. U.S.A 112 (2015): E3402-11, which is hereby incorporated by reference in its entirety. STS-109 UPS cells were derived from a human UPS tumor and validated by Rebecca Gladdy, MD (Sinai Health System, Toronto, Ontario, Canada). TC32 cells were a gift from Patrick Grohar, MD, PhD (Children's Hospital of Philadelphia). HT-1080, HCT-116, and HEK293T cells were purchased from ATCC. KP230, HT-1080, and HEK-293T cells were grown in DMEM with 10% FBS, 1% L-glutamine, and 1% penicillin/streptomycin (P/S). STS-109 cells were cultured in DMEM with 20% FBS, 1% L-glutamine, and 1% P/S. TC32 cells were grown in RPMI with 10% FBS, 1% L-glutamine, and 1% P/S. HCT-116 cells were cultured in McCoy's 5A medium with 10% FBS and 1% P/S. All cells were confirmed to be negative for mycoplasma contamination and were maintained in an incubator at 37C with 5% CO2. For experimental purposes, cells were cultured for up to 20 passages before being discarded, and were grown to approximately 50% confluence to circumvent the effects of high cell density on Yap1 expression and activity. All cell lines in the Eisinger laboratory were treated with 10 μM of each inhibitor or an equivalent volume of DMSO every 24 hours for 3 days, except for STS-109 cells, which were treated daily for 8 days.
as §1

U2OS cells = experiment: Cell count in U2OS Cell Painting images; format: cell-based, human; settings: for Avg. Cell Count z-score: U2OS Cell Painting
Excerpt: as §2, §3

murine periosteal cells = experiment: qPCR of Yap1 and Cyr61 in murine periosteal cells; format: cell-based, mouse; settings: 5 μM
Experimental: Murine periosteal cells were isolated from a transgenic mouse model (CMV-Cre; R26R-rtTA^fl; tetO-YAP^S127A) in which YAP1 can be activated in a doxycycline inducible manner (Camargo 2011). This mouse model expresses a mutant form of YAP1 (YAP^S127A) that escapes degradation. Cells were cultured in a-MEM with 15% Fetal Bovine serum (S11550, R&D Systems), 1% GlutaMAX-I (Gibco, 35050-061) and 1% Penicillin/Streptomycin (Gibco, 15140-122).
To induce YAP^S127A, […] doxycycline was added to the cell culture medium for 48 hours. This was used as a positive control to compare YAP1 mRNA expression. Cells were also treated with BRD-K34692511-001-01-9 at 5 μM. mRNA was isolated from cells (n=3/group/time point) at 1, 4 or 48 hours after treatment using Qiagen RNeasy Mini kit (Qiagen, 74106). cDNA was prepared as per the manufacturer's protocol using the High-Capacity Reverse Transcription kit (Thermofisher scientific, 4368814). qPCR analysis was performed using the QuantStudio 6 Pro Real-Time PCR System.

Structure (SMILES)	mRNA levels of hippo pathway members (YAP1, CTGF, CYR61) [1]	cell viability (KP230 cells [2])	Cell Painting profile correlation with TRAF2 overexpression [3]	Corr. to TRAF2 [3]	PAX8 inhibition (PAX8)	Cell Painting profile correlation with YAP1 overexpression [4]	Corr. to YAP1 cluster [4]	AC50 ([5]; read-out: AC50, inhibition of cell proliferation) [µM]	proliferation (KP230 cells [6])	proliferation in the U2OS Cell Painting images (U2OS cells)	Avg. Cell Count z-score (U2OS cells)	mRNA levels of Yap1 and Cyr61 (murine periosteal cells; 1 and 4 hours)	mRNA levels of Yap1 and Cyr61 (murine periosteal cells; 48 hours)	AC50, inhibition of cell proliferation [5]
CO[C@@H]1CN(C)C(=O)c2ccc(NC(=O)c3ccc(-c4ccccc4)cc3)cc2OC[C@H](C)NC[C@@H]1C [BRD-K28862419, N-[(4S,7S,8S)-8-methoxy-4,7,10-trimethyl-11-oxo-2-oxa-5,10-diazabicyclo[10.4.0]hexadeca-1(12),13,15-trien-15-yl]-4-phenylbenzamide]	did not dramatically impact	modestly yet significantly reduced	0.41	0.4068	inhibits PAX8	−0.43	−0.4317	5 to 18	inhibited KP230 cell proliferation	−2.0 st dev	−2.044	–	–	–
CO[C@@H]1CN(C)C(=O)c2cc(NC(=O)Nc3ccc(C(F)(F)F)cc3)ccc2OC[C@@H](C)NC[C@@H]1C [BRD-K34692511, 1-[(4R,7S,8S)-8-methoxy-4,7,10-trimethyl-11-oxo-2-oxa-5,10-diazabicyclo[10.4.0]hexadeca-1(12),13,15-trien-14-yl]-3-[4-(trifluoromethyl)phenyl]urea]	did not dramatically impact	–	0.29	0.2869	had none of these impacts	−0.45	−0.4398	–	inhibited KP230 cell proliferation	had none of these impacts	0.478	not at 1 and 4 hours	substantially upregulated	had none of these impacts
